The subject of assay [1] is CSM14.1 neuronal cells. In words: Cell survival assay (thapsigargin-induced cell death, CELLTITER-GLO luminescence). Type of assay: cell-based. Particulars: CSM14.1 cells, compound 2 hrs before about 15 μM thapsigargin, overnight (about 16 to 24 hrs), cell viability. As for the experimental part:
CSM14.1 neuronal cells were maintained in Complete Medium at 32° C.; wherein the Complete Medium contained Dulbecco's modified eagle medium (DMEM) with 10% fetal bovine serum (FSB), 1% L-glutamine, 100 IU/mL penicillin, and 100 μg/mL streptomycin. The cells were recovered from cultures by trypsinization and then seeded in 384 well plates (Greiner #781098) at a concentration of 1,000 cells/well in 20 μL of DMEM Assay Medium, wherein the DMEM Assay Medium contained 2% FBS, 100 IU/mL penicillin, and 100 μg/mL streptomycin. Seeding was performed using a MultiDrop Combi reagent broadcaster. The plates were incubated overnight at 32° C. A test compound was prepared by 2-fold serial dilution in 100% DMSO using a BIOMEK® 2000 liquid handler (Beckman Coulter). A dose-response curve containing 10 concentrations of the test compound was obtained. Using a BIOMEK® FX liquid handler (Beckman Coulter), 2.5 μL of the test compound was transferred from the 100% DMSO serial dilution plate to an intermediate plate containing 47.5 μL of DMEM Assay Medium containing 2% FBS, 100 IU/mL penicillin, and 100 μg/mL streptomycin and mixed. To reduce or eliminate the interference from the compound's precipitation, 6 μL of the diluted compound was immediately transferred to the assay plate to achieve a high compound concentration of 100 μM in 99% DMEM Assay Medium and 1% DMSO. After the assay plates were incubated for 2 hrs, 4 μL of 112.5 μM thapsigargin (TG) (DMSO stock diluted into Assay TC Medium) was dispensed into each testing well with a MultiDrop Combi reagent broadcaster for a final concentration of about 15 μM TG. The tissue culture media (4 μL) containing vehicle only was transferred manually to each control cell using a 16 channel electronic pipette. After the plates were incubated overnight (about 16 to 24 hrs), CELLTITER-GLO® (Promega) (16 μL) was added to all wells and luminescence was measured. High luminescence indicates cell survival. The biological results are summarized in Table 1 where A represents a cell viability EC50 less than 1 μM and B represents a value greater than 1 μM and less than 10 μM.
(In general: Cellular ATP, detected with luciferase, serves as a proxy for viable cell number.)

Assay [2] concerns the target T1, SERCA (microsomal preparations from HEK 293 cells) (Homo sapiens, UniProt P16615).
T1 construct: endogenous in cells; host or cells: HEK 293 cells (microsomal preparation)
In words: Ca-ATPase assay (NADH-linked, enzyme-coupled ATPase assay). Type of assay: biochemical. The note with it: ATP hydrolysis rate over a range of calcium concentrations, Vmax by fit to Hill function, relative to controls. Here is the method:
A Ca-ATPase assay was performed using microsomal preparations from HEK 293 cells at a series of calcium concentrations corresponding to the physiological range, relative to controls. The ATP hydrolysis rate was measured over a range of calcium concentrations in the presence of test compounds using an NADH-linked, enzyme-coupled ATPase assay adapted for 96-well microplates, with Vmax determined by fitting the ATPase calcium-dependence to the Hill function. Each well contained 2 μg or 7 μg of SR vesicles (optimized for skeletal or cardiac SR, respectively), 50 mM MOPS (pH 7.0), 100 mM KCl, 5 mM MgCl2, 1 mM EGTA, 0.2 mM NADH, 1 mM phosphoenol pyruvate, 5 IU pyruvate kinase, 5 IU lactate dehydrogenase, and 3.5 μg/mL A23187 (a calcium ionophore). CaCl2 was added to set free [Ca^2+] to the specific values. The assay was started upon addition of ATP at a final concentration of 5 mM, and read in a SpectraMax Plus microplate spectrophotometer. The results are summarized in Table 4, where A represents an increase in SERCA Vmax greater than 50% and B represents a value greater than 10% and less than 50%.

In assay [3] the test system is Ob/ob mice. In words: Effect of a SERCA agonist on the level of blood glucose. Type of assay: in vivo, mouse. The note with it: 50 mg/kg i.p. once a day for 5 days, fasting glucose at baseline and 4 days after administration. As for the experimental part: Ob/ob mice (10 weeks old, n=7) were intraperitoneally (i.p.) injected with 100 μL of a solution containing 0 (vehicle) or 50 mg/kg of a test compound once a day for a total of 5 days. Fasting glucose was measured at baseline and 4 days after the administration of the test compound. Glucose levels were measured in blood samples drawn from the tail vein using a handheld glucose sensor. Compound effects on blood glucose are shown in Table 5 where A represents a 10-20% reduction in blood glucose, B represents a 21-30% reduction in blood glucose, and C represents a greater than 30% reduction in blood glucose levels.

In assay [4] the test system is Human embryonic kidney (HEK293) cells; Mouse neuroblastoma (N2a) cells. In words: Cell rescue assay: protection against thapsigargin (TG)-induced cell-death (ALAMARBLUE). Type of assay: cell-based. Particulars: compound 20 μM, 2 hrs before thapsigargin (15 μM for HEK293 cells, 1 μM for N2a cells), 24 hrs; viability as % RFU compared to control. As for the experimental part:
Protection against Thapsigargin (TG)-induced Cell-death. Human embryonic kidney (HEK293) cells were grown in Dulbecco's Modified Eagle's Medium (DMEM) with 10% FBS and 1% antibiotic antimycotic solution (ABAM). Mouse neuroblastoma (N2a) cells were grown in 1:1 DMEM:OPTI-MEM® with 5% FBS and 1% ABAM. All cells were grown in 10% CO2 in a humidified environment of the incubator. Cells grown in 96-well plates were exposed to a test compound (20 μM) for 2 hrs before addition of thapsigargin (15 μM for HEK293 cells and 1 μM for N2a cells) to induce ER stress. After incubation in cell-culture incubator for 24 hrs, ALAMARBLUE® regent (10% v/v) was added to the wells. Fluorescence reading was taken 2 hrs after the addition of the ALAMARBLUE® regent. Cell-viability was calculated as a percentage of relative fluorescence unit (RFU) compared to control. […] The biological results are summarized in Table 2, where each compound was tested at 20 μM and where A represents a viability greater than 50%, B represents a viability greater than 10% and less than 50%, C represents a value below 10%.
For orientation: The colour change of resazurin is a common sign of viable cells or microbes.

In assay [5] the test system is Human SH-SY5Y cells. In words: Cell rescue assay: protection against β-amyloid-induced cell toxicity. Type of assay: cell-based. The note with it: 7.5 uM compound, AB1-42 at 10 uM, 4 days, OD at 490 nm. As for the experimental part:
Protection against β-amyloid-induced cell toxicity. Chonpathompikunlert et al. Eu. J. Pharmacol. 2011, 650, 544-549. Human SH-SY5Y cells are suspended in media containing 2% FBS and 2× Gentamicin. Transfer 100 ul/well culture to 96-well plate (20,000 cells/well; passage #5) and incubate overnight. Prepare compound samples at 30 uM. Add 50 ul of the samples to the cells [[…]] and incubate 3 hours. Make stock of 40 uM AB1-42 peptide in assay media. Transfer 50 ul/well to cells/compounds in assay plate. The final assay volume is 200 ul/well, containing 2% FBS, 2× Gentamicin, 7.5 uM compound and AB1-42 at 10 uM. Incubate for 4 days then add 20 ul of Promega Substrate Cell Titer 96 Aqueous One Solution Reagent to each well. Incubate 37° C. and read OD at 490 nm. The results are summarized in Table 3, where A represents a value greater than 50% cell rescue, B represents a value greater than 10% and less than 50% cell rescue, and C represents a value greater than 1% and less than 10% cell rescue.

Molecules are shown by their SMILES. Some results are limits rather than exact numbers.

The results in this text go back to patent US10800766B2, “Quinoline alkenes as cytoprotective agents” (priority 2015, dated 2020).

T1 sequence (P16615 whole entry): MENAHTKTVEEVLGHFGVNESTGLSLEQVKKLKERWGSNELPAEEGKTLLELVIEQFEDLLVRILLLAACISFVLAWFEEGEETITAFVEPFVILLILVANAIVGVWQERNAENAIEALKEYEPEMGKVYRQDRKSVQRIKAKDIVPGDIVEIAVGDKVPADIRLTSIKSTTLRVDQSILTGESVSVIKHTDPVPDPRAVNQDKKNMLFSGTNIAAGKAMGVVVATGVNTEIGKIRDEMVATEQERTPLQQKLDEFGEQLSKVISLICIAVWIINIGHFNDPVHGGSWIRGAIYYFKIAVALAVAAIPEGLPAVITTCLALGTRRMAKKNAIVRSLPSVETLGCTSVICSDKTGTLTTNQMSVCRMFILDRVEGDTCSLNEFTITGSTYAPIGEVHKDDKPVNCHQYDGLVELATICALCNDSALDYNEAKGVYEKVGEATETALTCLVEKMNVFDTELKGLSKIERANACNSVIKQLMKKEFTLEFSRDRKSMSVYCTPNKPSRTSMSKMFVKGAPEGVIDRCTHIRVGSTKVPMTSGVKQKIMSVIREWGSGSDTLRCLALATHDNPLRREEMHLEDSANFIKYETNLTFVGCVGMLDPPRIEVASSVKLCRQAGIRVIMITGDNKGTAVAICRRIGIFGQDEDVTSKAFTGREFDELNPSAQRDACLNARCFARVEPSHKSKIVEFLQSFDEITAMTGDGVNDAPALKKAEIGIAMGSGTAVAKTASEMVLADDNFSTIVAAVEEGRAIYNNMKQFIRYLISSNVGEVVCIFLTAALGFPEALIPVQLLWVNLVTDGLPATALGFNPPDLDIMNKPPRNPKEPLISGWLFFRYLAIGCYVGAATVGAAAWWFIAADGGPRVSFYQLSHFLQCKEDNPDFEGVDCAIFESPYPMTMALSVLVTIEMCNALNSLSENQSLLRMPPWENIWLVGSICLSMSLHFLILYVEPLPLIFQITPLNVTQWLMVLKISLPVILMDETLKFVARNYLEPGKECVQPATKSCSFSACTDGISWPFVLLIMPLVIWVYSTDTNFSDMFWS

A word on the EC50: it is the concentration that produces a half-maximal response. Higher therefore signals a need for much substance. The compound `Cc1ccc2cccc(/C=C/c3cccc(F)c3)c2n1` [A6, (E)-8-(3-Fluorostyryl)-2-methylquinoline] displayed an EC50 in assay [1] of 1000 to 10000 nM. The “SERCA Vmax Increase” value in assay [2] is “B (B represents a value greater than 10% and less than 50%)”. For the same compound, the Glucose level reduction entry in assay [3] was “A (A represents a 10-20% reduction in blood glucose)”. In assay [4], the “Cell Survival %” value was “B (B represents a viability greater than 10% and less than 50%)”. Also, the “Cell Survival % (cell rescue)” value in assay [5] is on record as “A (A represents a value greater than 50% cell rescue)”.
For the compound `Cc1ccc2cccc(/C=C/c3ccc(OC(C)C)cc3)c2n1` [A1, (E)-8-(4-Isopropoxystyryl)-2-methylquinoline], in assay [1], the EC50 is < 1000 nM. Besides, in assay [2], the “SERCA Vmax Increase” value is “A (A represents an increase in SERCA Vmax greater than 50%)”. In addition, the Glucose level reduction entry in assay [3] is “C (C represents a greater than 30% reduction in blood glucose levels)”. The “Cell Survival %” value in assay [4] is “A (A represents a viability greater than 50%)”. In assay [5], the “Cell Survival % (cell rescue)” value is reported as “A (A represents a value greater than 50% cell rescue)”.
For the compound `Cc1ccc2cccc(/C=C/c3cccc(C(F)(F)F)c3)c2n1` [A5, (E)-8-(3-(Trifluoromethyl)styryl)-2-methylquinoline], the EC50 in assay [1] lay in the range of 1000 to 10000 nM. Also, in assay [2], the “SERCA Vmax Increase” value is “A (A represents an increase in SERCA Vmax greater than 50%)”. For the same compound, in assay [3], the Glucose level reduction entry was “B (B represents a 21-30% reduction in blood glucose)”. For the same compound, the “Cell Survival %” value in assay [4] was “B (B represents a viability greater than 10% and less than 50%)”. Further, the “Cell Survival % (cell rescue)” value in assay [5] was “B (B represents a value greater than 10% and less than 50% cell rescue)”.
For the compound `Cc1ccc2cccc(/C=C/c3cc(Br)cs3)c2n1` [A2, (E)-8-(2-(4-Bromothiophen-2-yl)vinyl)-2-methylquinoline], the EC50 in assay [1] is < 1000 nM. Further, the “SERCA Vmax Increase” value in assay [2] is “A (A represents an increase in SERCA Vmax greater than 50%)”. For the same compound, the Glucose level reduction result in assay [3] was “B (B represents a 21-30% reduction in blood glucose)”. For the same compound, the “Cell Survival %” value in assay [4] was “A (A represents a viability greater than 50%)”. For the same compound, in assay [5], the “Cell Survival % (cell rescue)” value was “B (B represents a value greater than 10% and less than 50% cell rescue)”.
`Cc1ccc2cccc(/C=C/c3ccc(Br)s3)c2n1` [A3, (E)-8-(2-(5-Bromothiophen-2-yl)vinyl)-2-methylquinoline] returned an EC50 in assay [1] of 1000 to 10000 nM. Besides, in assay [2], the “SERCA Vmax Increase” value is “A (A represents an increase in SERCA Vmax greater than 50%)”. Further, the Glucose level reduction entry in assay [3] is “B (B represents a 21-30% reduction in blood glucose)”. For the same compound, the “Cell Survival %” value in assay [4] is “B (B represents a viability greater than 10% and less than 50%)”. In addition, the “Cell Survival % (cell rescue)” value in assay [5] is “C (C represents a value greater than 1% and less than 10% cell rescue)”.
For the compound `Cc1ccc2cccc(/C=C/c3ccc(Cl)cc3)c2n1` [A4, (E)-8-(4-Chlorostyryl)-2-methylquinoline], the EC50 in assay [1] was < 1000 nM. Further, the “SERCA Vmax Increase” value in assay [2] is “B (B represents a value greater than 10% and less than 50%)”. Further, in assay [3], the Glucose level reduction entry was “A (A represents a 10-20% reduction in blood glucose)”. In assay [4], the “Cell Survival %” value was “C (C represents a value below 10%)”. The “Cell Survival % (cell rescue)” value in assay [5] was “B (B represents a value greater than 10% and less than 50% cell rescue)”.
